Like-named read-outs stand apart in the source and are kept apart here.
Experiments:
[1] = system: Huh7 cells
[2] = in vitro; assay type: cell-based; details: human
Method: (§1) Nine cell lines originated from different human tissues (Table 2) are selected to evaluate the cytotoxicity of the tested compounds. Sorafenib or Taxol are used as cytotoxic control compounds. The cells and compounds are added to the 96-well test plate. Cells are cultured in culture medium containing 10% FBS, 5% CO2 and 37° C. for 3 days, and then cell viability was detected by CellTiter-Glo reagent. The raw data are used for compound cytotoxicity calculations. The dose-response curves of the compounds are analyzed by GraphPad Prism software and CC50 values are calculated. The compound will be tested at 8 concentration points, 3-fold series dilution, and 3-compound pores.

[3] = in vitro; assay type: cell-based; details: human; remark: listed apart in the source
Method: as §1

[4] = in vitro; assay type: cell-based; details: human; remark: listed apart in the source
Method: as §1

[5] = in vitro; assay type: cell-based; details: human; remark: listed apart in the source
Method: as §1

[6] = in vitro; assay type: cell-based; details: human; remark: listed apart in the source
Method: as §1

[7] = in vitro; assay type: in vitro ADME, people; details: human, hepatocytes
[8] = in vitro; assay type: cell-based; details: human; remark: listed apart in the source
Method: as §1

[9] = system: HepG2 cells
[10] = system: SARS-CoV-2 strain; experiment: microbe, parasite or virus in culture; details: Severe acute respiratory syndrome coronavirus 2, read-out: EC50 of SARS-CoV-2 strain
[11] = in vitro; assay type: cell-based; details: human; remark: listed apart in the source
Method: as §1

[12] = in vivo; details: male, Sprague-Dawley, rat; for AUC(0-inf): AUC0-∞; for half-life: T1/2
[13] = in vitro; assay type: cell-based; details: human; remark: listed apart in the source
Method: as §1

[14] = in vitro; assay type: cell-based; details: human; remark: listed apart in the source
Method: as §1

[15] = in vitro; details: human
[16] = biological target: MERS Mpro protease (Middle East respiratory syndrome-related coronavirus (isolate United Kingdom/H123990006/2012) (MERS-CoV) (Betacoronavirus England 1), UniProt K9N7C7); experiment: biochemical
Chain of MERS Mpro protease (K9N7C7 3248-3553 limits assumed): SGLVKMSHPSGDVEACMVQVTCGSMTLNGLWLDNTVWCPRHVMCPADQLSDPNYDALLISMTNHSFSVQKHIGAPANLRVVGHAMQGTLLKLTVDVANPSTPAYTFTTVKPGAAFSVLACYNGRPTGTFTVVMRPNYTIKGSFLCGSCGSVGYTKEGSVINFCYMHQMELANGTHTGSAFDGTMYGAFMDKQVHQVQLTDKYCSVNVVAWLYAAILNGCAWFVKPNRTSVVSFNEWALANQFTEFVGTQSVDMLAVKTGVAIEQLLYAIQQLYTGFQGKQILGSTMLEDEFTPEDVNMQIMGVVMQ

[17] = in vitro; assay type: in vitro ADME; details: rat, hepatocytes
[18] = system: SARS-CoV-2; details: read-out: viral inhibitory activity EC50, cited from earlier work
[19] = in vitro; details: rat, microsomes
[20] = liver microsomes; rat
[21] = biological target: HKU1 Mpro protease (Human coronavirus HKU1 (isolate N1) (HCoV-HKU1), UniProt P0C6X2); assay type: biochemical; details: read-out: Enzymatic Determination of IC50 of compound by Mpro, HKU1
Chain of HKU1 Mpro protease (P0C6X2 3335-3637 limits assumed): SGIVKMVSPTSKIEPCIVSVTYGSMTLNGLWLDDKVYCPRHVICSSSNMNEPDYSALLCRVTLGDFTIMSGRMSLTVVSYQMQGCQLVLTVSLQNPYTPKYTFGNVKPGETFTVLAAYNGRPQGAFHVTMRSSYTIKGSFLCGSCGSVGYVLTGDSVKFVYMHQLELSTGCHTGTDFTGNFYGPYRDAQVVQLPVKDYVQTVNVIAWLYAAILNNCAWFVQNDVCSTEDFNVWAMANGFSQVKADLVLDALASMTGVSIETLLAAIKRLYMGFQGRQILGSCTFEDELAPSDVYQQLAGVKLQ

[22] = biological target: NL63 Mpro protease (Human coronavirus NL63 (HCoV-NL63), UniProt P0C6X5); experiment: Mpro enzymatic assay, other human coronaviruses: NL63; assay type: biochemical; details: read-out: Enzymatic Determination of IC50 of compound by Mpro, NL63
Chain of NL63 Mpro protease (P0C6X5 2940-3242 limits assumed): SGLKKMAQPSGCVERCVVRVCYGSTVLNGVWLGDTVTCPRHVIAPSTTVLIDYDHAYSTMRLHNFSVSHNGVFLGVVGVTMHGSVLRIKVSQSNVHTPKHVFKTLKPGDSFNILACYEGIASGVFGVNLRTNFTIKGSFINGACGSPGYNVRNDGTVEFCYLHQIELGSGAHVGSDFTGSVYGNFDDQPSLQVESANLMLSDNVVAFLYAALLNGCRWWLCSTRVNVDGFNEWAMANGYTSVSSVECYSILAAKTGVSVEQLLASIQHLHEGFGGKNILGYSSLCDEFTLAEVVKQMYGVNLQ

[23] = CCRF-CEM, 3 days, read-out: CC50
[24] = Colo-205, 3 days, read-out: CC50
[25] = rat, stated before the oral figures (intravenous per Table 11)

## CCC(CC)COC(=O)[C@H](C)N[P@](=O)(OC[C@H]1O[C@@](C#N)(c2ccc3c(N)ncnn23)[C@H](O)[C@@H]1O)Oc1ccccc1 [Remdesivir]
[1]
  CC50: >1 microns

## CC(=O)O[C@H]1C(=O)[C@@]2(C)[C@H]([C@H](OC(=O)c3ccccc3)[C@]3(O)C[C@H](OC(=O)[C@H](O)[C@@H](NC(=O)c4ccccc4)c4ccccc4)C(C)=C1C3(C)C)[C@]1(OC(C)=O)CO[C@@H]1C[C@@H]2O [Pacitaxel]
[2]; A375, 3 days, read-out: CC50
  CC50: 0.0089 µM
[3]; HEp2, 3 days, read-out: CC50
  CC50: 0.03 µM
[4]; HIHeLa, 3 days, read-out: CC50
  CC50: 0.02 µM
[5]; [23]
  CC50: 0.0034 µM
[6]; Molt-4, 3 days, read-out: CC50
  CC50: 0.0027 µM

## [2H]C([2H])([2H])n1cc2cc(Nc3nc(=O)n(Cc4ncn(C)n4)c(=O)n3Cc3cc(F)c(F)cc3F)c(Cl)cc2n1 [Compound I-5]
[7]
  half-life at 0.5 μM: 29.9 h

## O=C(O)/C=C/C(=O)O.[2H]C([2H])([2H])n1cnc(Cn2c(=O)[nH]/c(=N\c3cc4cn(C)nc4cc3Cl)n(Cc3cc(F)c(F)cc3F)c2=O)n1 [SHEN211]
[8]; HepG2, 3 days, read-out: CC50
  CC50: > 100 µM
[9]
  mitochondrial toxicity to human HepG2 cells: more than 200 μM
[9]; human
  difference between the CC50 and EC50: more than 476 times
[2]; A375, 3 days, read-out: CC50
  CC50: > 100 µM
[10]
  EC50: 0.084 to 0.21 µM
[1]
  CC50: >1 microns
[11]; [24]
  CC50: > 100 µM
[3]; HEp2, 3 days, read-out: CC50
  CC50: > 100 µM
[4]; HIHeLa, 3 days, read-out: CC50
  CC50: > 100 µM
[12]; po, 5 mg/kg, SD rat
  AUC(0-inf): 45500 ng·h/mL
  Cmax: 4710 ng/mL
  Tmax: 2 h
[12]; po, 5 mg/kg
  half-life: 3.22 h
[5]; [23]
  CC50: > 100 µM
[13]; HEK293, 3 days, read-out: CC50
  CC50: > 100 µM
[14]; MRC-5, 3 days, read-out: CC50
  CC50: > 100 µM
[15]; galactose culture HepG2 CC50
  CC50: 206 µM
[15]; glucose culture HepG2 CC50
  CC50: 202 µM
[6]; Molt-4, 3 days, read-out: CC50
  CC50: > 100 µM

## Cn1cnc(Cn2c(=O)[nH]/c(=N\c3cc4nn(C)cc4cc3Cl)n(Cc3cc(F)c(F)cc3F)c2=O)n1 [CVL201]
[8]
  CC50: > 100 µM
[2]
  CC50: > 100 µM
[16]
  IC50: 4960 µM
[1]
  CC50: >1 microns
[11]
  CC50: > 100 µM
[3]
  CC50: > 100 µM
[4]
  CC50: > 100 µM
[12]; po, 5 mg/kg
  AUC(0-inf): 53900 ng·h/mL
  Cmax: 4520 ng/mL
  half-life: 2.89 h
  Tmax: 4.67 h
[5]
  CC50: > 100 µM
[13]
  CC50: > 100 µM
[14]
  CC50: > 100 µM
[6]
  CC50: > 100 µM

## O=c1nc(NO)ccn1[C@@H]1O[C@H](CO)[C@@H](O)[C@H]1O [EIDD-1931]
[1]
  CC50: >10 microns

## [2H]C([2H])(c1ncn(C)n1)n1c(=O)nc(Nc2cc3cn(C)nc3cc2Cl)n(Cc2cc(F)c(F)cc2F)c1=O [Compound I-3]
[7]
  half-life at 0.5 μM: 204 h
[17]
  half-life at 0.5 μM: 8.28 h

## [2H]C([2H])([2H])n1cnc(Cn2c(=O)nc(Nc3cc4cn(C([2H])([2H])[2H])nc4cc3Cl)n(Cc3cc(F)c(F)cc3F)c2=O)n1 [Compound I-24]
[12]; po, 5 mg/kg, SD rat
  AUC(0-inf): 58300 ng·h/mL
  Cmax: 5210 ng/mL
  Tmax: 4 h
[12]; po, 5 mg/kg
  half-life: 3.51 h

## [2H]C([2H])([2H])n1cnc(Cn2c(=O)[nH]/c(=N\c3cc4cn(C)nc4cc3Cl)n(Cc3cc(F)c(F)cc3F)c2=O)n1 [Compound I-2]
[17]
  half-life at 0.5 μM: 89 h
rat, after oral administration
  AUC compared with S-217622: 144%
  Cmax compared with S-217622: 145%
[25]
  AUC compared with S-217622: 198%
  Cmax compared with S-217622: 125%
  T1/2 compared with S-217622: 124%
[12]; iv, 0.5 mg/kg, SD rat
  AUC(0-inf): 7940 ng·h/mL
  Cmax: 2880 ng/mL
  Tmax: 0.03 h
[12]; iv, 0.5 mg/kg
  half-life: 3.36 h
[12]; po, 5 mg/kg, SD rat
  AUC(0-inf): 65300 ng·h/mL
  Cmax: 6020 ng/mL
  Tmax: 2.33 h
[12]; po, 5 mg/kg
  half-life: 3.04 h

## CC(C)(C)[C@H](NC(=O)C(F)(F)F)C(=O)N1C[C@H]2[C@@H]([C@H]1C(=O)N[C@H](C#N)C[C@@H]1CCNC1=O)C2(C)C [PF-07321332]
[18]; A549 cells expressing ACE2 protein
  EC50: 0.056 µM
[18]; HeLa cells expressing ACE2 protein
  EC50: 0.099 µM
[18]; human airway epithelial cells
  EC50: 0.062 µM

## CNC(=O)c1cc(Oc2ccc(NC(=O)Nc3ccc(Cl)c(C(F)(F)F)c3)cc2)ccn1 [Sorafenib]
[8]; HepG2, 3 days, read-out: CC50
  CC50: 5.32 µM
[11]; [24]
  CC50: 8.72 µM
[13]; HEK293, 3 days, read-out: CC50
  CC50: 5.58 µM
[14]; MRC-5, 3 days, read-out: CC50
  CC50: 13.8 µM

## C[C@]12CC[C@H]3[C@@H](CCC4=CC(=O)CC[C@@]43C)[C@@H]1CC[C@@H]2O [Testosterone]
[19]
  half-life: 36 s
[20]
  Cl: 3.28 L/h/kg
  Cla: 6112.8 µL/min/mg
  Clape: 660.186 L/h/kg

## C=C(C)[C@H]1Cc2c(ccc3c2O[C@@H]2COc4cc(OC)c(OC)cc4[C@@H]2C3=O)O1 [Rotenone, reference compound]
[9]; human
  ratio (CC50 Glu/CC50 Gal): 91.7
[15]; galactose culture HepG2 CC50
  CC50: 0.03 µM
[15]; glucose culture HepG2 CC50
  CC50: 2.33 µM

## [2H]C([2H])([2H])n1cnc(Cn2c(=O)[nH]/c(=N\c3cc4cn(C)nc4cc3Cl)n(Cc3cc(F)c(F)cc3F)c2=O)n1 [SHEN212]
SD rat, PO, 5.0 mg/kg
  AUC0-∞: 62126.14 ng·h/mL
  Tmax: 3.67 h
rat, PO
  AUC compared with S-217 fumaric acid eutectic group: 115%
  AUC compared with S-217622 fumaric acid coproduct combined with niacinamide group: 124%
  Cmax compared with S-217 fumaric acid eutectic group: 132%
  Cmax compared with S-217622 fumaric acid coproduct combined with niacinamide group: 123%
  T1/2 compared with S-217622 fumaric acid coproduct combined with niacinamide group: 121%

## [2H]C([2H])([2H])n1cnc(Cn2c(=O)n(COC(=O)OC(C)C)/c(=N\c3cc4cn(C)nc4cc3Cl)n(Cc3cc(F)c(F)cc3F)c2=O)n1 [Compound I-19]
[12]; po, 5 mg/kg, SD rat
  AUC(0-inf): 70900 ng·h/mL
  Cmax: 6180 ng/mL
  Tmax: 3.33 h
[12]; po, 5 mg/kg
  half-life: 2.91 h

## CC(C)C[C@H](NC(=O)OCc1ccccc1)C(=O)N[C@@H](CC1CCNC1=O)C(O)S(=O)(=O)O (some centres unmarked) [GC-376]
[21]
  IC50: 0.022 µM
[22]
  IC50: 0.107 µM

— patent US20250188102A1, “TRIAZINE COMPOUND, INTERMEDIATE THEREOF, PREPARATION METHOD THEREFOR AND USE THEREOF” (priority 2022, published 2025)
